Laboratory results published in the NIST ThermoML archive (doi:10.1021/je060271a).

Details: 283.16 K, Liquid, Vibrating tube method

CCCC(=O)OCC(COC(=O)CCC)(COC(=O)CCC)COC(=O)CCC [pentaerythritol tetrabutyrate]
Details	mass density [kg/m3]
9129.5 kPa	1064.3
9159 kPa	1064.5
9187.9 kPa	1064.3
9222.8 kPa	1064.4
9252.1 kPa	1064.4
9282.2 kPa	1064.4
9318.6 kPa	1064.4
9349.3 kPa	1064.5
9379.8 kPa	1064.5
9411 kPa	1064.4
9447.8 kPa	1064.7
9478.5 kPa	1064.7
9515.9 kPa	1064.6
9547.2 kPa	1064.6
9578.8 kPa	1064.6
9616.9 kPa	1064.6
9649.2 kPa	1064.6
9681.5 kPa	1064.6
9714.5 kPa	1064.6
9755.2 kPa	1064.8
9788.8 kPa	1064.7
9830.3 kPa	1064.6
9864.7 kPa	1064.7
9896.4 kPa	1064.8
9925.9 kPa	1064.9
9960.2 kPa	1064.8
9989.6 kPa	1064.9
10025 kPa	1064.8
10056 kPa	1064.9
10087 kPa	1064.9
10121 kPa	1065
10145 kPa	1065.1
10167 kPa	1064.9
10189 kPa	1064.9
10215 kPa	1064.9
10238 kPa	1065
10260 kPa	1065.1
10278 kPa	1064.9
10293 kPa	1065.1
10311 kPa	1065
10327 kPa	1065
10342 kPa	1065
10358 kPa	1065
10377 kPa	1065.1
10392 kPa	1065.1
10408 kPa	1065.2
10427 kPa	1065
10443 kPa	1065.1
10459 kPa	1065.2
10478 kPa	1065.1
10494 kPa	1065.2
10510 kPa	1065.3
10526 kPa	1065.2
10545 kPa	1065.3
10561 kPa	1065.2
10578 kPa	1065.2
10597 kPa	1065.2
10613 kPa	1065.3
10630 kPa	1065.3
10646 kPa	1065.2
10666 kPa	1065.2
10682 kPa	1065.2
10699 kPa	1065.3
10719 kPa	1065.4
10735 kPa	1065.3
10755 kPa	1065.2
10773 kPa	1065.3
10789 kPa	1065.4
10806 kPa	1065.3
10827 kPa	1065.4
10845 kPa	1065.2
10863 kPa	1065.3
10879 kPa	1065.4
10900 kPa	1065.5
10917 kPa	1065.4
10934 kPa	1065.4
10955 kPa	1065.4
10972 kPa	1065.4
10990 kPa	1065.3
11010 kPa	1065.4
11028 kPa	1065.5
11046 kPa	1065.4
11067 kPa	1065.5
11086 kPa	1065.4
11104 kPa	1065.4
11122 kPa	1065.5
11144 kPa	1065.5
11162 kPa	1065.7
11180 kPa	1065.5
11202 kPa	1065.6
11220 kPa	1065.5
11238 kPa	1065.6
11257 kPa	1065.4
11279 kPa	1065.6
11298 kPa	1065.7
11316 kPa	1065.6
11339 kPa	1065.7
11479 kPa	1065.6
11499 kPa	1065.8
11522 kPa	1065.7
11541 kPa	1065.8
11561 kPa	1065.7
11584 kPa	1065.8
11604 kPa	1065.8
11624 kPa	1065.8
11643 kPa	1065.8
11970 kPa	1065.9
12038 kPa	1066.1
12063 kPa	1066.2
12084 kPa	1066.1
12106 kPa	1066.2
12132 kPa	1066
12154 kPa	1066.1
12175 kPa	1066.1
12198 kPa	1066.1
12224 kPa	1066.2
12246 kPa	1066.2
12268 kPa	1066.1
12294 kPa	1066.2
12316 kPa	1066.3
12338 kPa	1066.3
12365 kPa	1066.3
12388 kPa	1066.2
12410 kPa	1066.3
12437 kPa	1066.3
12460 kPa	1066.2
12483 kPa	1066.3
12510 kPa	1066.3
12533 kPa	1066.3
12556 kPa	1066.3
12584 kPa	1066.4
12607 kPa	1066.4
12630 kPa	1066.3
12659 kPa	1066.4
12682 kPa	1066.4
12705 kPa	1066.3
12734 kPa	1066.3
12758 kPa	1066.4
12784 kPa	1066.6
12809 kPa	1066.5
12838 kPa	1066.5
12862 kPa	1066.4
12886 kPa	1066.5
12911 kPa	1066.6
12940 kPa	1066.6
12965 kPa	1066.6
12994 kPa	1066.6
